Measurements: a melting point compilation (Tetko et al.; mined from patent text by program, amines drawn as free bases though some values may be those of a salt)

Row | Compound | melting point [°C]
1 | CN(C(=O)c1cnn(C)c1C(=O)Nc1ccn2nc(N3CCOCC3)nc2c1)C1CCCC1 | 222 to 224
2 | COC(=O)c1cc(NC(=O)C2=C(C)OCCS2)ccc1Cl | 115 to 117
3 | O=C(C1=NCCCCCN1)c1ccccc1 | 70 to 71
4 | CC(C)(C)OC(=O)N1CCN(c2cccc3c2c(Br)cn3S(=O)(=O)c2ccccc2)CC1 | 188 to 189
5 | NC(=O)CC(c1cccc(F)c1)c1cccc(F)c1 | 103 to 105
6 | COC(=O)COc1ccc(NC(=O)c2cc(F)cc(N3CCC(C)CC3)c2)c2ccccc12 | 50 to 51
7 | COc1ccc(-c2c3c(cc4ccc(OC)c(OC)c24)C(=O)NC3=O)cc1 | 288 to 290
8 | Cc1oc(-c2ccccc2)nc1CCCCCOC(C)(C)C(=O)O | 66 to 68
9 | Cc1ccc(O[C@H]2CCN(C)C[C@H]2O)cc1C (relative stereo) | 127 to 129
10 | COc1cc(N)c(Cl)cc1C(=O)NN1CCN(C)CC1 | 220
11 | O=C1N=Nc2ccncc21 | > 350
12 | CC(C)ON=Cc1cc(-n2c(=O)cc(C(F)(F)F)[nH]c2=O)ccc1Cl | 191 to 193
13 | NC(=O)c1ccc(-c2ccc3nnn(Cc4ccc5ncccc5c4)c3n2)cc1 | 229 to 231
14 | Cc1cnc(CNC(=O)c2sc(N3CCN(Cc4ccc(F)cc4)C3=O)nc2C)cn1 | 191 to 193
15 | COc1cccc2c1CCc1cnoc1-2 | 84 to 86
16 | O=C(O)c1cc2cc(-c3ccsc3)ccc2o1 | 215 to 220
17 | N#Cc1cc(N2CCCCC2)ccc1[N+](=O)[O-] | 126 to 127
18 | COc1cc2c(cc1OC)C1NC(=O)CCC1=C2c1ccccc1 (stereo not given) | 259 to 260
19 | COC(=O)c1cc2cc3[nH]c(=O)oc3cc2[nH]1 | 267 to 277
20 | C=Cc1cc(OC(C)=O)cc2nc(-c3ccc(OC(C)=O)c(F)c3)oc12 | 154 to 156
21 | CCNC(=O)n1nc(Oc2cc(OCC)ccc2[N+](=O)[O-])cc1C | 73 to 75
22 | CCN(CC1Cc2ccccc2N1CC)C(=N)N (stereo not given) | 230
23 | CC(C)CCCC(C)C1CCC2(C#N)C3C(O)CC4C(C)(C)C(OC(=O)c5ccccc5)CCC4(C)C3CCC12C (stereo not given) | 270 to 271
24 | CCCc1cc(=O)n2cccc(O)c2n1 | 95 to 96
25 | CCC1(C)C(=O)c2c(Cl)cc(C)c(C)c2C1=O (stereo not given) | 97

Row | Compound | melting point [°C]
26 | Cn1ncnc1COc1nn2c(-c3ccccc3F)nncc2c1-c1cccs1 | 196 to 197
27 | Fc1cc(F)c(N=C2NCCN2)c(F)c1F | 167 to 168
28 | Clc1ccc(-c2onc3c(CBr)cc(Cl)cc23)cc1 | 145 to 147
29 | O=C(c1cccc(CBr)c1)c1cccc(CBr)c1 | 147 to 148
30 | COC(=O)c1cc(N2CCOCC2)nc(Cl)n1 | 135 to 138
31 | CSc1csc2c1CCN(C)CC2c1ccccc1 (stereo not given) | 93
32 | CCOC(=O)C(=O)c1cc(OC)c(O)c([N+](=O)[O-])c1 | 165 to 167
33 | COc1ccc(Cl)cc1C(=O)NCCc1ccc(Sc2ccccc2)c(S(N)(=O)=O)c1 | 178
34 | Cc1c(Cl)cc([N+](=O)[O-])c(NC(C)C)c1[N+](=O)[O-] | 69 to 73
35 | Nc1ccc(C(O)(C(F)(F)F)C(F)(F)F)cc1O | 168 to 170
36 | O=C(N[C@H](Cc1ccccc1)C(=O)O)OCc1ccc(COc2ccccc2)cc1 | 116 to 117
37 | O=CNc1ccc(S(=O)(=O)C[N+](=O)[O-])cc1 | 192 to 193
38 | Cc1oc(-c2ccccc2)nc1CCC(=O)c1ccc(C=C2SC(=O)NC2=O)cc1 | 224 to 225
39 | Cc1cc(Cl)ccc1N1CCCN(C)C1=S | 143 to 145
40 | FC(F)(F)c1ccc(CCc2cc(OCc3ccccc3)c(OCc3ccccc3)nn2)cc1Cl | 169 to 170
41 | CCC1CC2=C3C(=CN(OC)C2OC)OCCC3C1 (stereo not given) | 207 to 210
42 | CCCC1(C(=O)NCc2ccc(N3Cc4ccccc4C3=O)cc2)c2ccccc2-c2ccccc21 | 96 to 99
43 | CCOC(=O)C1CC(=O)c2c(C)c(O)c(C)c(C)c2O1 (stereo not given) | 120 to 121
44 | NS(=O)(=O)Oc1cccc(-n2cnc(-c3ccccc3)c2)c1 | 209 to 211
45 | COP(=O)(OC)c1cc(O)c2c(=O)cc(-c3ccccc3)oc2c1 | 219
46 | Clc1cc2nc(-c3ccncc3)[nH]c2cc1Cl | 297
47 | CCOC(=O)C(C(=O)Nc1nccs1)C(=O)c1cccc(C(F)(F)F)c1NC(=O)C(Cl)C(C)C (stereo not given) | 160
48 | CCOC(=O)CN(CC1Nc2cc(Cl)c(S(N)(=O)=O)cc2S(=O)(=O)N1)C(=O)C(C)CSC(C)=O (stereo not given) | 127 to 130
49 | COC(=O)[C@H](Cc1cc(Cl)c(Oc2ccc3cc(OC)ccc3c2)c(Cl)c1)NC(=O)C(F)(F)F | 188 to 189
50 | O=C(Nc1nc(-c2ccccc2)cs1)C(=O)Nc1nc(-c2ccccc2)cs1 | 292 to 293

Row | Compound | melting point [°C]
51 | O=c1[nH]sc2cc(Cl)ccc12 | 271 to 272
52 | O=C(O)CCCC(=O)c1cn(-c2cccnc2)c2ccccc12 | 177 to 178
53 | COc1nccc2c(=O)n(C)c(N3C=CC(OC4CCN(C5CCC5)CC4)=NC3)nc12 | 199 to 200
54 | CC(C)SC1=N/C(=C\c2c[nH]c3ncc(Cl)cc23)C(=O)N1 | 291 to 293
55 | CS(=O)(=O)N1C[C@H](S)C[C@H]1CSCc1ccccc1 | 102 to 104
56 | Cc1cc(Br)cnc1NCCCNC1=NS(=O)N=C1NCc1ccc(F)cc1 (stereo not given) | 125 to 126
57 | Cc1cccc(CN(Cc2cccc(C)n2)C(c2ccccn2)c2ccccn2)n1 | 168
58 | Cc1cccc2c(Nc3cc(CO)cc(NC(=O)Nc4ccc(N(CCCl)CCCl)cc4)c3)c3ccccc3nc12 | 251 to 252
59 | O=C(O)C(Cc1ccccc1)Oc1ccc2cc(-c3csc(-c4ccccc4)n3)ccc2c1 (stereo not given) | 154 to 160
60 | CC(=O)NC(C)c1ccc(CN2CCN(c3nccs3)CC2)cc1 (stereo not given) | 136 to 137
61 | COc1ccc(-c2cc(CBr)c(=O)n(Cc3ccc(F)cc3)n2)cc1F | 120 to 125
62 | Cc1ccc(C(=S)OCSC#N)cc1 | 55
63 | CS(=O)(=O)CC(=O)NCCn1ccc2ncnc(Nc3ccc(Oc4cccc(Cl)c4)c(Cl)c3)c21 | 206 to 207
64 | CN(C)CC1Cc2c(n(C)c3ccc(O)cc23)C1 (stereo not given) | 110
65 | CC(C)(C)OC(=O)NCCNC(=O)c1cocn1 | 148 to 150
66 | CCOC(=O)C1=C(C)NC(SCc2ccc(OC)cc2)=NC1c1cccc(C)c1 (stereo not given) | 65 to 67
67 | CN(C)C1(c2ccccc2)CCC(CC(=O)NCCCCc2c[nH]c3ccccc23)CC1 (stereo not given) | 186
68 | Cc1c(S(=O)(=O)c2ccc(=O)[nH]n2)oc2ccc(C(F)(F)F)cc12 | 244 to 245
69 | Clc1cccc(N2CCN(CCCOc3ccc4scnc4c3)CC2)c1Cl | 127 to 129
70 | COc1cc2c(cc1OC)C(C=Cc1ccc([N+](=O)[O-])cc1)=NN(C(C)=O)C(C)C2 (stereo not given) | 182 to 184
71 | CC(=O)CCc1ccc2c(c1)Cc1cc(N)ccc1-2 | 116 to 117
72 | CCOCc1nc2c(N)nc3c(c2n1NC(C)C)CCCC3 | 144 to 146
73 | CC(Oc1cc(Oc2ccc(C(F)(F)F)cc2Cl)ccc1[N+](=O)[O-])C(=O)OCn1cccn1 (stereo not given) | 75
74 | CN(C(=O)COc1nnc(C(F)F)s1)c1ccccc1 | 67
75 | Cc1cc(C)n(-c2nnc3cc(Cl)ccc3n2)n1 | 174

Row | Compound | melting point [°C]
76 | COC(=O)c1cc(Oc2ccc(F)cc2F)ncc1N | 102 to 104
77 | CN(C)CC(=O)Nc1cccc2c1C(=O)c1c-2n[nH]c1-c1ccc(N2CCNCC2)cc1 | 243
78 | COC(=O)C(SC)c1ccc(N2C(=O)c3ccccc3C2=O)cc1 (stereo not given) | 168 to 169
79 | CNC(Cc1ccc(C(F)(F)F)cc1N)c1sccc1C (stereo not given) | 52 to 54
80 | COc1ccc(-c2csnn2)cc1C=O | 156 to 157
81 | Cc1c(N2C[C@H](C)[C@H](NC(=O)C(F)(F)F)C2)c(F)c(N)c2c(=O)c(C(=O)O)cn(C3CC3)c12 (relative stereo) | 253 to 254
82 | CS(=O)(=O)N1Cc2cccc(-c3ccc4cnc(Nc5ccc(C6CN(CC(N)=O)C6)cc5)nn34)c2C1 | 216 to 218
83 | CN(C)CC1CCCCN1C1c2ccccc2Oc2ccccc21 (stereo not given) | 81 to 83
84 | O=C(O)Cc1ccc(Sc2ccc(O)cc2)cc1 | 163 to 165
85 | COc1ccc(N2CCN(c3c(C)c4c(c(C)c3Br)OC(C)(C)C4)CC2)cc1 | 180 to 181
86 | CC(Br)C(=O)c1ccc(OC(=O)C(C)(C)C)c(OC(=O)C(C)(C)C)c1 (stereo not given) | 58 to 60
87 | O=C1CCNc2ccccc2N1c1ccccc1 | 170 to 171
88 | CCCCNC(=O)NC1Cc2ccc(C3=NNC(=O)CC3)cc2C1 (stereo not given) | 206 to 207
89 | Cc1ccc(NS(=O)(=O)c2ccccc2)cc1 | 118 to 119
90 | O=C(Nc1ccc(Oc2ccnc(NC3CCCC3)n2)c2ccccc12)c1cc(F)cc(N2CCOCC2)c1 | 119 to 120
91 | COc1cc2c(Nc3ccc(Cl)cc3F)ncnc2cc1OCc1ccccn1 | 215 to 218
92 | CC1(C)C(=O)Nc2ccc(C#N)cc2N(C2CC2)C1=O | 252 to 253
93 | COc1ccc(-c2nc(SCc3cccc(CSc4ncnc5nc[nH]c45)c3)[nH]c2-c2ccc(OC)cc2)cc1 | 129 to 130
94 | COc1ccc2c(c1)CCC(=O)C2CC(=O)c1ccccc1 (stereo not given) | 55 to 59
95 | C=CCN(CCC)S(=O)(=O)NC(=O)c1cc(N=C=S)c(F)cc1Cl | 83 to 85
96 | CC(C(=O)O)n1nnc2ccc(Oc3nn(C)c(C(F)(F)F)c3Cl)cc21 (stereo not given) | 209 to 211
97 | CCC(CC)(CC(=O)c1ccc(OC)c(OC)c1)C(=O)O | 106 to 109
98 | CC(C)OP(=O)(OC(C)C)C(Nc1ccccn1)P(=O)(OC(C)C)OC(C)C | 98 to 100
99 | Cc1cc(C)cc(COC(=O)C(Cc2c[nH]c3ccccc23)NS(=O)(=O)c2ccccc2)c1 (stereo not given) | 114 to 116
100 | C=CC(=O)Oc1ccc(N2C(=O)C(=C(C)C)/C(=C(/C)c3c(C)n(C)c4ccccc34)C2=O)cc1 | 172 to 174
